pIC50: −log10 of the molar value.
These compounds were tested against T1, human ERK-2 (Mitogen Activated Kinase 1) (Homo sapiens, UniProt P28482) (assay: ERK-2 Enzymatic Assay). Settings: TABLE I; 5nM ERK-2 enzyme, 25µM ATP, S/T17 peptide substrate; single assay or mean of multiple assays.
T1 construct: N-terminal 6-His fusion protein in E. coli and corresponding to aa 8-360; 6-His (N); made in house; host or cells: E. coli
Assay type: biochemical
Procedure: Compounds were tested in an enzymatic assay using human ERK-2 (Mitogen Activated Kinase 1), recombinantly expressed as an N-terminal 6-His fusion protein in E. coli and corresponding to aa 8-360. The substrate used was the fluorescent Omnia peptide S/T17 (Invitrogen of Carlsbad, CA; Cat. KNZ1171C). Test compounds were diluted in DMSO in 3-fold serial dilutions at 100x final concentrations. […] The assay was run at ambient temperature in a white 384-well polypropylene plate (Nunc, Inc of Naperville, IL; Cat. 267462) collecting data every 50 seconds for approximately 30 minutes on an Envision plate reader (PerkinElmer, Inc. of Waltham, MA); Excitation 340 nm/Emission 495 nm. The data collected from each well was fit to a straight line and the resulting rates were used to calculate percent of control. Percent of control was plotted against compound concentration and IC50 values were determined using a four-parameter fit. Representative data is in TABLE I and TABLE II. The reported IC50 may be from a single assay or the mean of multiple assays.

T1 sequence (P28482 8-360): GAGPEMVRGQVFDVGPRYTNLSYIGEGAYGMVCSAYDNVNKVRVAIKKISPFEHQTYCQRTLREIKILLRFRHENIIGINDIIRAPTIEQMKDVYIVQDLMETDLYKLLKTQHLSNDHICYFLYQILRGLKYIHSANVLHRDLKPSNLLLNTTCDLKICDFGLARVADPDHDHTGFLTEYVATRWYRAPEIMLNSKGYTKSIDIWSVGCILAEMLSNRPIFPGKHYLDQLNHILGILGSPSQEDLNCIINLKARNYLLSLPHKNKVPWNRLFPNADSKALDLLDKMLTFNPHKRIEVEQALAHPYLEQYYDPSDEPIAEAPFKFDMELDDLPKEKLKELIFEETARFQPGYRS

Row | pIC50 | SMILES
1 | 8.38 | COc1ccc([C@H](NC(=O)c2ccc3cnc(N[C@H]4CCO[C@H](CO)C4)nc3c2)c2cnn(C)c2)cc1F [Compound I-46, N-((S)-(3-fluoro-4-methoxyphenyl)(1-methyl-1H-pyrazol-4-yl)methyl)-2-((2S,4S)-2-(hydroxymethyl)tetrahydro-2H-pyran-4-ylamino)quinazoline-7-carboxamide]
2 | 8.55 | COc1ccc([C@H](NC(=O)c2cc(F)c3cnc(NC4CCOCC4)nc3c2)c2cnn(C)n2)cc1F [Compound I-51, (S)-5-Fluoro-N-((3-fluoro-4-methoxyphenyl)(2-methyl-2H-1,2,3-triazol-4-yl)methyl)-2-(tetrahydro-2H-pyran-4-ylamino)quinazoline-7-carboxamide]
3 | 7.62 | COc1ccc([C@H](NC(=O)c2ccc3cnc(N[C@H]4CCO[C@H](COC(C)=O)C4)nc3c2)c2cnn(C)c2)cc1F [Compound I-57, Acetic acid (2S,4S)-4-(7-{[(S)-(3-fluoro-4-methoxy-phenyl)-(1-methyl-1H-pyrazol-4-yl)-methyl]-carbamoyl}-quinazolin-2-ylamino)-tetrahydro-pyran-2-ylmethyl ester]
4 | 8.55 | CN1CCC[C@@H]1[C@@H](NC(=O)c1ccc2cnc(NC3CCOCC3)nc2c1)c1ccc(C(F)(F)F)c(F)c1 [Compound I-17, 2-(Tetrahydropyran-4-ylamino)-quinazoline-7-carboxylic acid [(S)-(3-fluoro-4-trifluoromethyl-phenyl)-((R)-1-methyl-pyrrolidin-2-yl)-methyl]-amide]
5 | 8.19 | O=C(N[C@@H](c1ccc(F)c(Cl)c1)[C@H]1CCNC1)c1ccc2cnc(NC3CCOCC3)nc2c1 (stereo in doubt) [Compound I-11, 2-(tetrahydropyran-4-ylamino)-quinazoline-7-carboxylic acid [(S)-(3-chloro-4-fluoro-phenyl)-(R)-pyrrolidin-3-yl-methyl]-amide]
6 | 7.70 | COCCNc1ncc2c(F)cc(C(=O)N[C@@H](c3ccc(OC)c(F)c3)c3cnn(C)c3)cc2n1 [Compound I-58, 5-Fluoro-2-(2-methoxy-ethylamino)-quinazoline-7-carboxylic acid [(S)-(3-fluoro-4-methoxy-phenyl)-(1-methyl-1H-pyrazol-4-yl)-methyl]-amide]
7 | 7.60 | Cn1cc([C@@H](NC(=O)c2ccc3cnc(NC4CCOCC4)nc3c2)c2ccc(C#N)c(Cl)c2)cn1 (stereo in doubt) [Compound I-50, (S)-N-((3-chloro-4-cyanophenyl)(1-methyl-1H-pyrazol-4-yl)methyl)-2-(tetrahydro-2H-pyran-4-ylamino)quinazoline-7-carboxamide]
8 | 7.16 | Cn1ccc([C@H](NC(=O)c2ccc3cnc(NC4CCOCC4)nc3c2)c2ccc(Cl)c(F)c2)n1 [Compound I-21, 2-(tetrahydropyran-4-ylamino)-quinazoline-7-carboxylic acid [(R)-(4-chloro-3-fluoro-phenyl)-(1-methyl-1H-pyrazol-3-yl)-methyl]-amide]
9 | 8.46 | COc1ccc([C@H](NC(=O)c2ccc3cnc(NC4CCOCC4)nc3c2)c2cnn(C)c2)cc1C#N [Compound I-56, 2-(Tetrahydro-pyran-4-ylamino)-quinazoline-7-carboxylic acid [(3-cyano-4-methoxy-phenyl)-(1-methyl-1H-pyrazol-4-yl)-methyl]-amide]

Same assay, conditions: TABLE II; 5nM ERK-2 enzyme, 25µM ATP, S/T17 peptide substrate; single assay or mean of multiple assays

Row | pIC50 | SMILES
10 | 7.59 | Cn1nccc1[C@@H](NC(=O)c1ccc2cnc(NC3CCOCC3)nc2c1)c1ccc(C#N)c(Cl)c1 [II-40]
11 | 7.82 | COCC(C)Nc1ncc2ccc(C(=O)N[C@@H](c3ccc(OC)c(F)c3)c3cnn(C)c3)cc2n1 (stereo partly drawn) [II-31]
12 | 8.96 | COc1ccc([C@H](NC(=O)c2cc(F)c3cnc(NC4CCOCC4)nc3c2)c2cncn2C)cc1F [II-46]
13 | 6.00 | COc1ccc(C(NC(=O)c2cc(F)c3cnc(NC4CC5CC4CO5)nc3c2)c2cnn(C)c2)cc1F (stereo not drawn) [II-34]
14 | 8.25 | C[C@@H](CO)Nc1ncc2c(F)cc(C(=O)N[C@@H](c3cccc(F)c3)c3cnn(C)c3)cc2n1 [II-26]
15 | 8.42 | COc1ccc([C@H](NC(=O)c2ccc3cnc(N[C@H]4C[C@H](O)C4)nc3c2)c2cnn(C)c2)cc1F [II-9]

From patent EP2739618B1, “QUINAZOLINE COMPOUNDS AS SERINE/THREONINE KINASE INHIBITORS” (Array Biopharma, Inc., priority 2011, dated 2013)
